# Paper PMC9231138, “Dihydrotanshinone I Enhances Cell Adhesion and Inhibits Cell Migration in Osteosarcoma U−2 OS Cells through CD44 and Chemokine Signaling” (Molecules, 2022)
# Columns and labels:
# Format in all cases: cell-based, human
# [1] = test system: U−2 OS cells; assay: Cell cycle distribution by flow cytometry; conditions: 24 h, mean ± SD
# Procedure: The cell cycle is a key regulator of cell survival and the repair signal network. It has direct effects on multiple cell processes, including cell proliferation, DNA repair, apoptosis, and cell migration. Thus, it was further analyzed by flow cytometry. As shown in Table 2 and Figure 5A–E, after treatment with DS−1 at doses of 0, 2.5, 5.0, and 7.5 µM for 24 h, the distribution of the cell cycle was measured and the proportion of the G0/G1 phase was 54.70 ± 2.21%, 61.07 ± 2.04%, 65.20 ± 4.35%, and 65.65 ± 1.83%, respectively. In addition, the proportion of U−2 OS cells at the G0/G1 phase increased with the increase in the DS−1 concentration (Figure 5A–E), implying possible cell cycle arrest at the G0/G1 phase.
# Figure 5 DS−1 regulated the cell cycle of U−2 OS cells. (A–D) Cell cycle of U−2 OS cells was retained in the G0/G1 phase. U−2 OS cells were treated with DS−1 at 0, 2.5, 5.0, and 7.5 µM for 24 h, and the cell cycle ratio was measured by flow cytometry; the cell cycle distribution is shown in Table 2. (E) Histogram of cell cycle distribution after U−2 OS cells were treated with DS−1. (F) Heatmap of the expression of genes relating to cell cycle in the transcriptome results. (G–K) In U−2 OS cells treated with DS−1 at concentrations of 0, 2.5, 5.0, and 7.5 μM, RNA was extracted and analyzed by RT-PCR, and the changes in CDK2, cyclin D1, cyclin E1, and p21 mRNA are presented in the histogram. (L) Cyclin D1 and cyclin E1 protein relative expression was analyzed by Western blot. Values are the average of three independent experiments, * p < 0.05, ** p < 0.01, *** p < 0.005. TEXT PRINTED IN THE PICTURE: (A) DS-1: G1(54.88%) (0 μM); S(19.57%) (0 μM); G2(23.84%) (0 μM) | (B) DS-1: G1(60.37%) (2.5 μM); S(18.70%) (2.5 μM); G2(19.44%) (2.5 μM) | (C) DS-1: G1(65.10%) (5.0 μM); S(16.87%) (5.0 μM); G2(16.41%) (5.0 μM) | (D) DS-1: G0G1(65.65%) (7.5 μM); S(14.20%) (7.5 μM); G2M(19.60%) (7.5 μM) DOUBTS OF THE COPYIST ABOUT THIS PICTURE: The label DS-1 is printed only in panel L ("DS-1(μM)"); panels A-D print only the concentration, no substance label / Panel A (0 μM) is the untreated state; its values are given with the 0 μM heading as condition / All gate percentages in panels A-D are printed very small and blurred; 3, 5, 6, 8 and 9 cannot be told apart with certainty / A, G1: 54.88% or 54.89% / 54.68% / A, S: 19.57% or 19.67% / A, G2: 23.84% or 23.64% / B, G1: 60.37% or 60.31% / 80.37% / B, S: 18.70% or 16.70% / B, G2: 19.44% or 18.44% / C, G1: 65.10% or 65.16% / 63.10% / C, S: 16.87% or 16.67% / 18.87% / C, G2: 16.41% or 18.41% / D, G0G1: 65.65% or 65.85% / 66.65% / D, S: 14.20% or 14.26% / D, G2M: 19.60% or 19.80% / 19.66%
# [2] = test system: CDK2; assay: RT-PCR CDK2 mRNA in U−2 OS cells; conditions: 24 h
# Procedure: (§1) Total RNA within cells was extracted by the RNAeasy™ Animal Long RNA Isolation Kit with Spin Column (Shanghai, Beyotime); the concentrations and OD260/OD280 and OD230/OD260 values were measured by NanoDrop. Five micrograms of RNA was used for reverse transcription; each sample was diluted to 16 μL, and 4 μL of synthesized premix solution (5×) was added, then the mixtures were placed in a 42 °C water bath for 10 min, then an 80 °C water bath for 10 min to deactivate reverse transcriptase. After reverse transcription, each sample was diluted to 140 μL. PCR amplification was carried out by the ABI700 real-time PCR system, and the amplification reaction was detected with a SYBR probe. After PCR, actin and GAPDH were used as internal references, and the relative standard curve method (2^−ΔΔcT) determined the relative expression of mRNA.
# [3] = test system: E-cadherin; assay: RT-PCR E-cadherin mRNA in U−2 OS cells; conditions: 24 h
# Procedure: as §1
# [4] = test system: pAKT; assay: Western blot pAKT; conditions: 24 h
# Procedure: Sample preparation: U−2 OS cells seeded in 10 cm Petri dishes were collected and washed with ice-cold PBS and RIPA lysis buffer with PMAF; phosphatase inhibitor was added, and the tubes were placed on ice for 30 min and vortexed for 30 s at intervals of 10 min. The samples were centrifuged at 12,000 g at 4 °C for 15 min, and the supernatants were collected in new centrifuge tubes. The protein samples were placed on ice, and the concentration of each protein sample was measured by the BCA kit (Thermo). The protein concentration was adjusted to the same by milli Q ultrapure water.
# Loading and running the gel: Equal amounts of protein were loaded into the wells of the 10% SDS-PAGE gel, along with molecular weight markers, and 15 μg of total protein from the cell lysate was loaded. We then ran the gel for 45 min at 200 V.
# Transferring the protein: We prepared the transfer stack as follows: negative plate, sponge, filter paper, gel, PVDF membrane, filter paper, sponge, and positive plate. The transfer was for 90 min at 200 mA.
# Antibody staining: We blocked the membrane for 1 h at room temperature using 5% blocking solution, then incubated the membrane with appropriate dilutions of the primary antibody in the blocking solution overnight at 4 °C. We then washed the membrane with TBST reagent 3 times, 5 min each. Then, we incubated the membrane with the recommended dilution of labeled secondary antibody in blocking solution at room temperature for 1 h and washed the membrane with TBST reagent 3 times, 5 min each. For signal development, super-enhanced chemiluminescence detection reagents were added to the surface of the membrane for 1 min, then excess reagent was removed, and the membrane was covered in transparent plastic wrap. Images were acquired using darkroom development techniques for chemiluminescence and analyzed by Image J.
smiles,measurement,setting,value
"Cc1cccc2c3c(ccc12)C1=C(C(=O)C3=O)[C@@H](C)CO1 [DS−1, 15,16-Dihydrotanshinone I]",proportion of cells in G0/G1 phase,[1]; DS−1 2.5 µM,61.07 ± 2.04%
same,proportion of cells in G2/M phase,[1]; DS−1 2.5 µM,18.65 ± 3.50
same,proportion of cells in S phase,[1]; DS−1 2.5 µM,20.10 ± 2.07
same,proportion of cells in G0/G1 phase,[1]; DS−1 5.0 µM,65.20 ± 4.35%
same,proportion of cells in G2/M phase,[1]; DS−1 5.0 µM,14.92 ± 4.67
same,proportion of cells in S phase,[1]; DS−1 5.0 µM,19.55 ± 3.08
same,proportion of cells in G0/G1 phase,[1]; DS−1 7.5 µM,65.65 ± 1.83%
same,proportion of cells in G2/M phase,[1]; DS−1 7.5 µM,19.60 ± 1.40
same,proportion of cells in S phase,[1]; DS−1 7.5 µM,14.20 ± 0.40
same,"CDK2 mRNA, fold of the control group",[2]; first of three DS−1 doses (2.5 µM per Fig. 5 legend),0.85 ± 0.08 fold
same,"CDK2 mRNA, fold of the control group",[2]; second of three DS−1 doses (5.0 µM per Fig. 5 legend),0.80 ± 0.16 fold
same,"CDK2 mRNA, fold of the control group",[2]; third of three DS−1 doses (7.5 µM per Fig. 5 legend),0.66 ± 0.07 fold
same,"E-cadherin mRNA, fold of the control group",[3]; DS−1 2.5 µM,1.21 ± 0.16 fold
same,"E-cadherin mRNA, fold of the control group",[3]; DS−1 5.0 µM,1.26 ± 0.25 fold
same,"E-cadherin mRNA, fold of the control group",[3]; DS−1 7.5 µM,1.61 ± 0.16 fold
same,"pAKT, fold of the control group",[4]; DS−1 5.0 µM,2.06 ± 0.08 fold
same,"pAKT, fold of the control group",[4]; DS−1 7.5 µM,2.10 ± 0.15 fold
same,pAKT/AKT value,"[4]; with the concentration of DS−1 (2.5, 5.0, 7.5 µM)",increased
